Patent publication US20090306133A1, “New Acetyl Coenzyme A Carboxylase (ACC) Inhibitors And Uses In Treatments Of Obesity And Diabetes Mellitus - 087” (ASTRAZENECA AB, priority 2007, published 2009)

Legend:
[1] = biological target: Human recombinant Acetyl-CoA Carboxylase 2 (ACC2) (Homo sapiens, UniProt O00763); assay: Assay Y: ACC2 inhibition, inorganic phosphate (Malachite Green); assay type: biochemical; conditions: Assay Y: room temperature, 3 hr, 15 min preincubation
Outline: (§1)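 Enzyme preincubated with compound 15 min before substrate addition; reaction run 3 h, then phosphate detected with Malachite Green at 670 nm after 10 min at room temperature. Triplicate 10-point titrations; IC50 by non-linear four-parameter curve fitting.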

[2] = biological target: Human recombinant Acetyl-CoA Carboxylase 1 (ACC1) (Homo sapiens, UniProt Q13085); assay: Assay Y: ACC1 inhibition, inorganic phosphate (Malachite Green); assay type: biochemical; conditions: Assay Y: room temperature, 3 hr, 15 min preincubation
Outline: as §1

Human recombinant Acetyl-CoA Carboxylase 2 (ACC2), sequence (O00763 whole entry): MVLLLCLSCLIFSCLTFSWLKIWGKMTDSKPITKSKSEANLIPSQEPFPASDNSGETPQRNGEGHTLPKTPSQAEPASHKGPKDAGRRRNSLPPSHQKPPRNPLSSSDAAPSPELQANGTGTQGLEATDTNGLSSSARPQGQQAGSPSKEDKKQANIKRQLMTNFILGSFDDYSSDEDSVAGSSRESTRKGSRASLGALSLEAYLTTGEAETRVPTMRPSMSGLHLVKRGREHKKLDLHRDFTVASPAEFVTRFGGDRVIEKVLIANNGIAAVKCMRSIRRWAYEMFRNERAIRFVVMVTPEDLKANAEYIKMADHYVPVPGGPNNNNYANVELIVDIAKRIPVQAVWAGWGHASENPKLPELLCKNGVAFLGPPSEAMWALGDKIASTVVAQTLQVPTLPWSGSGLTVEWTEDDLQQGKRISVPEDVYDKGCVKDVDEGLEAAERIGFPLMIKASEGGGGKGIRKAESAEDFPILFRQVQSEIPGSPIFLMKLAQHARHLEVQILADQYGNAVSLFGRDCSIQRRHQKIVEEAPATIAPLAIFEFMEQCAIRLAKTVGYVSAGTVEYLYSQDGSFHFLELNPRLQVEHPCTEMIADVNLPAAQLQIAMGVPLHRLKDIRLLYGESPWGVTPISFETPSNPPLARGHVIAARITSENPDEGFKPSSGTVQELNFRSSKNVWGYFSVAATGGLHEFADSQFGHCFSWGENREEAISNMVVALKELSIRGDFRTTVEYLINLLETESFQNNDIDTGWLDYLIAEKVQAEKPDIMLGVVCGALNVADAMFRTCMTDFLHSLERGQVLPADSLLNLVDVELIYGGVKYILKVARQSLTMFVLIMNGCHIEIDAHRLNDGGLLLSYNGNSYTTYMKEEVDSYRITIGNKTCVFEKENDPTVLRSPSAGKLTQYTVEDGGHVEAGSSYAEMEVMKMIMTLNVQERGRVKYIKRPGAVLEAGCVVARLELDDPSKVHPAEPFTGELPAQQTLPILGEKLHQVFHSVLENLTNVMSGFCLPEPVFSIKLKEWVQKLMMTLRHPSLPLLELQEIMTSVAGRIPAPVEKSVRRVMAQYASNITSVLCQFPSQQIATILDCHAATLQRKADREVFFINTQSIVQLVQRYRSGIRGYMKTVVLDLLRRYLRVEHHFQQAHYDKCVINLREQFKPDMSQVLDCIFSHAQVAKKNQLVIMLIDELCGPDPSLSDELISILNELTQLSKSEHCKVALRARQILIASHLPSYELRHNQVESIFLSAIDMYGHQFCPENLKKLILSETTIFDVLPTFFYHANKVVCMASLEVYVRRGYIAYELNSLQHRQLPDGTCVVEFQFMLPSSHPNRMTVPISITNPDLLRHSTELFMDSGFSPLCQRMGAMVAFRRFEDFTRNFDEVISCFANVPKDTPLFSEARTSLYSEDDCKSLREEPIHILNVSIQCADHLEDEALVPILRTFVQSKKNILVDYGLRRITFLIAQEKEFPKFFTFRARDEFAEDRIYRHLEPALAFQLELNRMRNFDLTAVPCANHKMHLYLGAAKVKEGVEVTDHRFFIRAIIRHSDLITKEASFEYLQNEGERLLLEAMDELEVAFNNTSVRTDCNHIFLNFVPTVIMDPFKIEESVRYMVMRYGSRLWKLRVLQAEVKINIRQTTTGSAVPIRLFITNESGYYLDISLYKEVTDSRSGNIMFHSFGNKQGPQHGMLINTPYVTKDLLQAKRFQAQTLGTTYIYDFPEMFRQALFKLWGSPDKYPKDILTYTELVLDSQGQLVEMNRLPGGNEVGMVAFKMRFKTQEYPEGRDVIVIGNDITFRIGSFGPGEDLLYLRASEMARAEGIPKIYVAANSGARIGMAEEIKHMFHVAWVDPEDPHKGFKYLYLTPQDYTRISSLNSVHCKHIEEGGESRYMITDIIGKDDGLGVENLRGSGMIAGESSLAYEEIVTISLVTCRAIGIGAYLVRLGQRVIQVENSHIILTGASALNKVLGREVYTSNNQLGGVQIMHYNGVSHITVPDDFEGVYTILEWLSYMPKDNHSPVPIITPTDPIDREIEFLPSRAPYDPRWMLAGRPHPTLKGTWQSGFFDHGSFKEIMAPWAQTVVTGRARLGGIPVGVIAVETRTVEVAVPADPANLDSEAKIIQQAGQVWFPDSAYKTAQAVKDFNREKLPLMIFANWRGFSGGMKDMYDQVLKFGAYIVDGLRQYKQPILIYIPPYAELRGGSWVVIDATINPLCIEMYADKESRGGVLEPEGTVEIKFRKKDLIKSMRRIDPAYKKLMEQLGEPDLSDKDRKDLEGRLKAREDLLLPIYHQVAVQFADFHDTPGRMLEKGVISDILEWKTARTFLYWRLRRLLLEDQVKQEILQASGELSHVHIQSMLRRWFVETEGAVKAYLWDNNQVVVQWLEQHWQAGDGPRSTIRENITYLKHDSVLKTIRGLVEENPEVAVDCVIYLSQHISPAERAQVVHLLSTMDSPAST

SMILES	IC50 [1]	IC50 [2]
COC(=O)NCc1ccc(-c2cc(C(=O)NC[C@H]3CC[C@H](CNC(=O)OC(C)(C)C)CC3)c3ccccc3n2)cc1 [Example 104, Methyl [4-(4-{[(trans-4-{[(tert-butoxycarbonyl)amino]methyl}cyclohexyl)methyl]-carbamoyl}quinolin-2-yl)benzyl]carbamate]	110 nM	1600 nM
CC(C)(C)OC(=O)NC[C@H]1CC[C@H](CNC(=O)c2cc(-c3ccc(CNC(N)=O)cc3)nc3ccccc23)CC1 [Example 105, tert-Butyl {[trans-4-({[(2-{4-[(carbamoylamino)methyl]phenyl}quinolin-4-yl)carbonyl]amino}methyl)cyclohexyl]methyl}carbamate]	30 nM	110 nM
CC(C)(C)OC(=O)NC[C@H]1CC[C@H](CNC(=O)c2cc(-c3ccc(CNS(C)(=O)=O)cc3)nc3ccccc23)CC1 [Example 106, tert-Butyl ({trans-4-[({[2-(4-{[(methylsulfonyl)amino]methyl}phenyl)quinolin-4-yl]carbonyl}amino)methyl]cyclohexyl}methyl)carbamate]	70 nM	430 nM
CC(C)(C)OC(=O)NC[C@H]1CC[C@H](CNC(=O)c2cc(-c3ccc(CC(=O)O)cc3)nc3ccccc23)CC1 [Example 107, [4-(4-{[(trans-4-{[(tert-Butoxycarbonyl)amino]methyl}cyclohexyl)methyl]-carbamoyl}quinolin-2-yl)phenyl]acetic Acid]	210 nM	2620 nM
CC(C)(C)OC(=O)NC[C@H]1CC[C@H](CNC(=O)c2cc(-c3cccc(C(=O)O)c3)nc3ccccc23)CC1 [Example 108, 3-(4-{[(trans-4-{[(tert-Butoxycarbonyl)amino]methyl}cyclohexyl)methyl]-carbamoyl}quinolin-2-yl)benzoic Acid]	450 nM	7870 nM
CN1CCN(c2ccc(-c3cc(C(=O)NC[C@H]4CC[C@H](CNC(=O)OC5CCOCC5)CC4)c4ccccc4n3)cn2)CC1 [Example 109, Tetrahydro-2H-pyran-4-yl [(trans-4-{[({2-[6-(4-methylpiperazin-1-yl)pyridin-3-yl]quinolin-4-yl}carbonyl)amino]methyl}cyclohexyl)methyl]carbamate]	210 nM	1710 nM
CN1CCC(OC(=O)NC[C@H]2CC[C@H](CNC(=O)c3cc(-c4ccc(N5CCN(C)CC5)nc4)nc4ccccc34)CC2)CC1 [Example 110, 1-Methylpiperidin-4-yl-[(trans-4-{[({2-[6-(4-methylpiperazin-1-yl)pyridin-3-yl]quinolin-4-yl}carbonyl)amino]methyl}cyclohexyl)methyl]carbamate]	4370 nM	> 20000 nM
CN1CCN(c2ccc(-c3cc(C(=O)NC[C@H]4CC[C@H](CNC(=O)O[C@H]5CCOC5)CC4)c4ccccc4n3)cn2)CC1 [Example 116, (3S)-Tetrahydrofuran-3-yl-[(trans-4-{[({2-[6-(4-methylpiperazin-1-yl)pyridin-3-yl]quinolin-4-yl}carbonyl)amino]methyl}cyclohexyl)methyl]carbamate]	180 nM	1260 nM
CN1CCN(c2ccc(-c3cc(C(=O)NC[C@H]4CC[C@H](CNC(=O)OCC(F)F)CC4)c4ccccc4n3)cn2)CC1 [Example 117, 2,2-Difluoroethyl[(trans-4-{[({2-[6-(4-methylpiperazin-1-yl)pyridin-3-yl]quinolin-4-yl}carbonyl)amino]methyl}cyclohexyl)methyl]carbamate]	410 nM	960 nM
CN1CCN(c2ccc(-c3cc(C(=O)NC[C@H]4CC[C@H](CNC(=O)OCCF)CC4)c4ccccc4n3)cn2)CC1 [Example 118, 2-Fluoroethyl[(trans-4-{[({2-[6-(4-methylpiperazin-1-yl)pyridin-3-yl]quinolin-4-yl}carbonyl)amino]methyl}cyclohexyl)methyl]carbamate]	650 nM	1640 nM
CCOC(=O)NC[C@H]1CC[C@H](CNC(=O)c2cc(-c3ccc(N4CCN(C)CC4)nc3)nc3ccccc23)CC1 [Example 119, Ethyl[(trans-4-{[({2-[6-(4-methylpiperazin-1-yl)pyridin-3-yl]quinolin-4-yl}carbonyl)amino]methyl}cyclohexyl)methyl]carbamate]	720 nM	2260 nM
COCCOC(=O)NC[C@H]1CC[C@H](CNC(=O)c2cc(-c3ccc(N4CCN(C)CC4)nc3)nc3ccccc23)CC1 [Example 120, 2-Methoxyethyl[(trans-4-{[({2-[6-(4-methylpiperazin-1-yl)pyridin-3-yl]quinolin-4-yl}carbonyl)amino]methyl}cyclohexyl)methyl]carbamate]	1320 nM	4250 nM
C[C@@H](CO)OC(=O)NC[C@H]1CC[C@H](CNC(=O)c2cc(-c3ccc(N4CCN(C)CC4)nc3)nc3ccccc23)CC1 [Example 133, (1S)-2-Hydroxy-1-methylethyl [(trans-4-{[({2-[6-(4-methylpiperazin-1-yl)pyridin-3-yl]quinolin-4-yl}carbonyl)amino]methyl}cyclohexyl)methyl]carbamate]	660 nM	2490 nM
CNS(=O)(=O)c1ccc(-c2cc(C(=O)NC[C@H]3CC[C@H](CNC(=O)OC(C)(C)C)CC3)c3ccccc3n2)cc1 [Example 134, tert-Butyl {[trans-4-({[(2-{4-[(methylamino)sulfonyl]-phenyl}quinolin-4-yl)carbonyl]amino}methyl)cyclohexyl]methyl}-carbamate]	100 nM	530 nM
CC(C)(C)OC(=O)NC[C@H]1CC[C@H](CNC(=O)c2cc(-c3ccc(S(N)(=O)=O)cc3)nc3ccccc23)CC1 [Example 135, tert-Butyl [(trans-4-{[({2-[4-(aminosulfonyl)phenyl]-quinolin-4-yl}carbonyl)amino]-methyl}-cyclohexyl)methyl]-carbamate]	80 nM	380 nM
CNS(=O)(=O)c1ccc(-c2cc(C(=O)NC[C@H]3CC[C@H](CNC(=O)OC4CCOCC4)CC3)c3ccccc3n2)cc1 [Example 136, Tetrahydro-2H-pyran-4-yl{[trans-4-({[(2-{4-[(methylamino)sulfonyl]phenyl}quinolin-4-yl)carbonyl]amino}methyl)cyclohexyl]methyl}-carbamate]	620 nM	3070 nM
CNS(=O)(=O)c1ccc(-c2cc(C(=O)NC[C@H]3CC[C@H](CNC(=O)O[C@H]4CCOC4)CC3)c3ccccc3n2)cc1 [Example 137, (3S)-Tetrahydrofuran-3-yl{[trans-4-({[(2-{4-[(methylamino)sulfonyl]phenyl}quinolin-4-yl)carbonyl]amino}methyl)cyclohexyl]methyl}-carbamate]	680 nM	3410 nM
NS(=O)(=O)c1ccc(-c2cc(C(=O)NC[C@H]3CC[C@H](CNC(=O)OC4CCOCC4)CC3)c3ccccc3n2)cc1 [Example 138, Tetrahydro-2H-pyran-4-yl[(trans-4-{[({2-[4-(aminosulfonyl)phenyl]-quinolin-4-yl}carbonyl)amino]-methyl}cyclohexyl)-methyl]carbamate]	710 nM	3760 nM
NS(=O)(=O)c1ccc(-c2cc(C(=O)NC[C@H]3CC[C@H](CNC(=O)O[C@H]4CCOC4)CC3)c3ccccc3n2)cc1 [Example 139, (3S)-Tetrahydrofuran-3-yl[(trans-4-{[({2-[4-(aminosulfonyl)phenyl]-quinolin-4-yl}carbonyl)amino]-methyl}cyclohexyl)-methyl]carbamate]	530 nM	3340 nM
CN(C)S(=O)(=O)c1ccc(-c2cc(C(=O)NC[C@H]3CC[C@H](CNC(=O)OC4CCOCC4)CC3)c3ccccc3n2)cc1 [Example 140, Tetrahydro-2H-pyran-4-yl{[trans-4-({[(2-{4-[(dimethylamino)sulfonyl]phenyl}quinolin-4-yl)carbonyl]amino}-methyl)cyclohexyl]-methyl}carbamate]	960 nM	3310 nM
CN(C)S(=O)(=O)c1ccc(-c2cc(C(=O)NC[C@H]3CC[C@H](CNC(=O)O[C@H]4CCOC4)CC3)c3ccccc3n2)cc1 [Example 141, (3S)-Tetrahydrofuran-3-yl{[trans-4-({[(2-{4-[(dimethylamino)sulfonyl]phenyl}quinolin-4-yl)carbonyl]amino}-methyl)cyclohexyl]-methyl}carbamate]	920 nM	3900 nM
CC(=O)N1CCN(c2ccc(-c3cc(C(=O)NC[C@H]4CC[C@H](CNC(=O)OC(C)(C)C)CC4)c4ccccc4n3)cn2)CC1 [Example 142, tert-Butyl [(trans-4-{[({2-[6-(4-acetylpiperazin-1-yl)pyridin-3-yl]quinolin-4-yl}carbonyl)amino]methyl}cyclohexyl)methyl]carbamate]	130 nM	> 20000 nM
CC(C)(C)OC(=O)NC[C@H]1CC[C@H](CNC(=O)c2cc(-c3ccc(NCCO)nc3)nc3ccccc23)CC1 [Example 143, tert-Butyl{[trans-4-({[(2-{6-[(2-hydroxyethyl)amino]pyridin-3-yl}quinolin-4-yl)carbonyl]amino}methyl)cyclohexyl]methyl}carbamate]	30 nM	360 nM
CC(C)(C)OC(=O)NC[C@H]1CC[C@H](CNC(=O)c2cc(-c3ccc(N4CCCC4)nc3)nc3ccccc23)CC1 [Example 144, tert-Butyl({trans-4-[({[2-(6-pyrrolidin-1-ylpyridin-3-yl)quinolin-4-yl]carbonyl}amino)methyl]cyclohexyl}methyl)carbamate]	220 nM	4000 nM
CC(C)(C)OC(=O)NC[C@H]1CC[C@H](CNC(=O)c2cc(-c3ccc(N4CCOCC4)nc3)nc3ccccc23)CC1 [Example 145, tert-Butyl({trans-4-[({[2-(6-morpholin-4-ylpyridin-3-yl)-quinolin-4-yl]carbonyl}amino)-methyl]cyclohexyl}methyl)carbamate]	60 nM	280 nM
